Test results reported in ChEMBL document CHEMBL1629634, “Postantibiotic effect of tigecycline against 14 gram-positive organisms” (Antimicrob Agents Chemother, 2009).
≈ marks a conversion by molar mass, not a printed value.

Key:
Type in all cases: functional
Streptococcus pneumoniae [1] = assay: Antibacterial activity against penicillin-intermediate Streptococcus pneumoniae by macrodilution method
Streptococcus pneumoniae [2] = assay: Antibacterial activity against penicillin-resistant Streptococcus pneumoniae assessed as post-antibiotic sub-MIC effect at 0.2 times MIC concentration pretreated with 10 times MIC concentration for 1 hr followed by 1:1000 dilution by viable plate count method
Staphylococcus aureus [3] = assay: Antibacterial activity against vancomycin-sensitive methicillin-resistant Staphylococcus aureus assessed as post-antibiotic sub-MIC effect at 0.2 times MIC concentration pretreated with 10 times MIC concentration for 1 hr followed by 1:1000 dilution by viable plate count method
Klebsiella pneumoniae [4] = assay: Antibacterial activity against Klebsiella pneumoniae assessed as post-antibiotic sub-MIC effect at 0.2 times MIC concentration pretreated with 2 times MIC concentration for 1 hr followed by 1:1000 dilution by viable plate count method
Enterobacter cloacae [5] = assay: Antibacterial activity against Enterobacter cloacae assessed as post-antibiotic sub-MIC effect at 0.2 times MIC concentration pretreated with 10 times MIC concentration for 1 hr followed by 1:1000 dilution by viable plate count method
Enterobacter cloacae [6] = assay: Antibacterial activity against Enterobacter cloacae assessed as post-antibiotic sub-MIC effect at 0.2 times MIC concentration pretreated with 2 times MIC concentration for 1 hr followed by 1:1000 dilution by viable plate count method
Streptococcus pneumoniae [7] = assay: Antibacterial activity against penicillin-susceptible Streptococcus pneumoniae assessed as sub-MIC effect at 0.3 times MIC concentration incubated for 1 hr by viable plate count method
Klebsiella pneumoniae [8] = assay: Antibacterial activity against Klebsiella pneumoniae assessed as sub-MIC effect at 0.3 times MIC concentration incubated for 1 hr by viable plate count method
Enterobacter cloacae [9] = assay: Antibacterial activity against Enterobacter cloacae assessed as sub-MIC effect at 0.3 times MIC concentration incubated for 1 hr by viable plate count method
Acinetobacter baumannii [10] = assay: Antibacterial activity against Acinetobacter baumannii assessed as sub-MIC effect at 0.3 times MIC concentration incubated for 1 hr by viable plate count method
Streptococcus pneumoniae [11] = assay: Antibacterial activity against penicillin-susceptible Streptococcus pneumoniae by macrodilution method
Escherichia coli [12] = assay: Antibacterial activity against Escherichia coli assessed as post-antibiotic sub-MIC effect at 0.3 times MIC concentration pretreated with 6 times MIC concentration for 1 hr followed by 1:1000 dilution by viable plate count method
Staphylococcus aureus [13] = assay: Antibacterial activity against vancomycin-sensitive methicillin-resistant Staphylococcus aureus assessed as sub-MIC effect at 0.4 times MIC concentration incubated for 1 hr by viable plate count method
Enterococcus faecalis [14] = assay: Antibacterial activity against vancomycin-sensitive Enterococcus faecalis assessed as sub-MIC effect at 0.4 times MIC concentration incubated for 1 hr by viable plate count method
Acinetobacter baumannii [15] = assay: Antibacterial activity against Acinetobacter baumannii assessed as sub-MIC effect at 0.4 times MIC concentration incubated for 1 hr by viable plate count method
Streptococcus pneumoniae [16] = assay: Antibacterial activity against penicillin-resistant Streptococcus pneumoniae assessed as post-antibiotic sub-MIC effect at 0.4 times MIC concentration pretreated with 10 times MIC concentration for 1 hr followed by 1:1000 dilution by viable plate count method
Staphylococcus aureus [17] = assay: Antibacterial activity against vancomycin-intermediate methicillin-resistant Staphylococcus aureus assessed as post-antibiotic sub-MIC effect at 0.4 times MIC concentration pretreated with 6 times MIC concentration for 1 hr followed by 1:1000 dilution by viable plate count method
Haemophilus influenzae = assay: Antibacterial activity against beta-lactamase deficient ampicillin-resistant Haemophilus influenzae assessed as post-antibiotic sub-MIC effect at 0.4 times MIC concentration pretreated with 10 times MIC concentration for 1 hr followed by 1:1000 dilution by viable plate count method
Staphylococcus aureus [18] = assay: Antibacterial activity against vancomycin-intermediate methicillin-resistant Staphylococcus aureus assessed as post-antibiotic sub-MIC effect at 0.3 times MIC concentration pretreated with 6 times MIC concentration for 1 hr followed by 1:1000 dilution by viable plate count method
Enterococcus faecalis [19] = assay: Antibacterial activity against vancomycin-sensitive Enterococcus faecalis assessed as post-antibiotic sub-MIC effect at 0.3 times MIC concentration pretreated with 10 times MIC concentration for 1 hr followed by 1:1000 dilution by viable plate count method
Streptococcus pneumoniae [20] = assay: Antibacterial activity against penicillin-susceptible Streptococcus pneumoniae assessed as post-antibiotic sub-MIC effect at 0.2 times MIC concentration pretreated with 10 times MIC concentration for 1 hr followed by 1:1000 dilution by viable plate count method
Acinetobacter baumannii [21] = assay: Antibacterial activity against multidrug-resistant Acinetobacter baumannii producing OXA-24 and OXA-51 beta-lactamases assessed as sub-MIC effect at 0.2 times MIC concentration incubated for 1 hr by viable plate count method
Acinetobacter baumannii [22] = assay: Antibacterial activity against Acinetobacter baumannii assessed as sub-MIC effect at 0.2 times MIC concentration incubated for 1 hr by viable plate count method
Staphylococcus aureus [23] = assay: Antibacterial activity against vancomycin-intermediate methicillin-resistant Staphylococcus aureus assessed as sub-MIC effect at 0.2 times MIC concentration incubated for 1 hr by viable plate count method
Streptococcus pneumoniae [24] = assay: Antibacterial activity against penicillin-resistant Streptococcus pneumoniae assessed as sub-MIC effect at 0.2 times MIC concentration incubated for 1 hr by viable plate count method
Enterobacter cloacae [25] = assay: Antibacterial activity against Enterobacter cloacae assessed as post antibiotic effect at 10 times MIC concentration incubated for 1 hr measured after 1:1000 dilution by viable plate count method
Escherichia coli [26] = assay: Antibacterial activity against Escherichia coli assessed as post antibiotic effect at 6 times MIC concentration incubated for 1 hr measured after 1:1000 dilution by viable plate count method
Enterococcus faecalis [27] = assay: Antibacterial activity against vancomycin-resistant Enterococcus faecalis assessed as post antibiotic effect at 10 times MIC concentration incubated for 1 hr measured after 1:1000 dilution by viable plate count method
Staphylococcus aureus [28] = assay: Antibacterial activity against vancomycin-sensitive methicillin-resistant Staphylococcus aureus assessed as post antibiotic effect at 6 times MIC concentration incubated for 1 hr measured after 1:1000 dilution by viable plate count method
Acinetobacter baumannii [29] = assay: Antibacterial activity against multidrug-resistant Acinetobacter baumannii producing OXA-24 and OXA-51 beta-lactamases by macrodilution method
Escherichia coli [30] = assay: Antibacterial activity against Escherichia coli by macrodilution method
Enterococcus faecalis [31] = assay: Antibacterial activity against vancomycin-sensitive Enterococcus faecalis by macrodilution method
Klebsiella pneumoniae [32] = assay: Antibacterial activity against Klebsiella pneumoniae assessed as post-antibiotic sub-MIC effect at 0.4 times MIC concentration pretreated with 2 times MIC concentration for 1 hr followed by 1:1000 dilution by viable plate count method
Enterobacter cloacae [33] = assay: Antibacterial activity against Enterobacter cloacae assessed as post-antibiotic sub-MIC effect at 0.4 times MIC concentration pretreated with 10 times MIC concentration for 1 hr followed by 1:1000 dilution by viable plate count method
Acinetobacter baumannii [34] = assay: Antibacterial activity against Acinetobacter baumannii assessed as post-antibiotic sub-MIC effect at 0.4 times MIC concentration pretreated with 6 times MIC concentration for 1 hr followed by 1:1000 dilution by viable plate count method
Escherichia coli [35] = assay: Antibacterial activity against Escherichia coli assessed as post antibiotic effect

CN(C)c1cc(NC(=O)CNC(C)(C)C)c(O)c2c1C[C@H]1C[C@H]3[C@H](N(C)C)C(O)=C(C(N)=O)C(=O)[C@@]3(O)C(O)=C1C2=O [TIGECYCLINE]
MIC (Streptococcus pneumoniae [1]): 0.06 mg/L (≈ 0.102 µM)
PAE (Streptococcus pneumoniae [2]): 6.7 h
PAE (Staphylococcus aureus [3]): 3.6 h
PAE (Klebsiella pneumoniae [4]): 1.8 h
PAE (Enterobacter cloacae [5]): 3.6 h
PAE (Enterobacter cloacae [6]): 2.9 h
PAE (Streptococcus pneumoniae [7]): 0 h
PAE (Klebsiella pneumoniae [8]): 0.4 h
PAE (Enterobacter cloacae [9]): 0.4 h
PAE (Acinetobacter baumannii [10]): 1.5 h
MIC (Streptococcus pneumoniae [11]): 0.03 mg/L (≈ 0.0512 µM)
PAE (Escherichia coli [12]): 2.9 h
PAE (Staphylococcus aureus [13]): 0.9 h
PAE (Enterococcus faecalis [14]): 1.8 h
PAE (Acinetobacter baumannii [15]): 11.2 h
PAE (Streptococcus pneumoniae [16]): 10.2 h
PAE (Staphylococcus aureus [17]): 10 h
PAE (Haemophilus influenzae): 2.8 h
PAE (Staphylococcus aureus [18]): 9.8 h
PAE (Enterococcus faecalis [19]): 6.8 h
PAE (Streptococcus pneumoniae [20]): 5.9 h
PAE (Acinetobacter baumannii [21]): 0.4 h
PAE (Acinetobacter baumannii [22]): 0.3 h
PAE (Staphylococcus aureus [23]): 2 h
PAE (Streptococcus pneumoniae [24]): 0.5 h
PAE (Enterobacter cloacae [25]): 1.2 h
PAE (Escherichia coli [26]): 1.9 h
PAE (Enterococcus faecalis [27]): 6 h
PAE (Staphylococcus aureus [28]): 2.9 h
MIC (Acinetobacter baumannii [29]): 2 mg/L (≈ 3.41 µM)
MIC (Escherichia coli [30]): 0.12 mg/L (≈ 0.205 µM)
MIC (Enterococcus faecalis [31]): 0.06 mg/L (≈ 0.102 µM)
PAE (Klebsiella pneumoniae [32]): 2.6 h
PAE (Enterobacter cloacae [33]): 7.2 h
PAE (Acinetobacter baumannii [34]): > 11.2 h
PAE (Escherichia coli [35]): 2 h
